Data published in patent US20040198819A1, “Biological response modifier composition and uses thereof” (priority 2001, published 2004).

Experiments:
[1] = tested on: peritoneal macrophages; experiment: Nitric oxide release by mouse peritoneal macrophages (Greiss reagent); type: cell-based, C57BL/6 mice; settings: in vitro
Experimental: (§1) Peritoneal macrophages are harvested from C57BL/6 mice 72 hours after intraperitoneal injection of 1.5 ml of 4% protease peptone. The macrophages are then stimulated in vitro with medium alone, 50 ng LPS, or BRM. Measurements of the stimulation are performed with respect to TNF (by ELISA) and NO (by spectrophotometric assay using the Greiss reagent) levels in duplicate experiments.
In vitro synergy of BRM with LPS for nitric oxide (NO) is addressed in the same procedure as above, except NO is determined in the supernatant of the treated macrophages. As above, the assay for NO is spectrophotometric and uses a Greiss reagent.
In vitro synergy of BRM with IFN-γ for NO release is studied, using the same peritoneal mouse macrophages derived from C57BL/6 mice treated as above.

[2] = tested on: peritoneal macrophages; experiment: TNF-α release by mouse peritoneal macrophages (ELISA); type: cell-based, C57BL/6 mice; settings: in vitro culture
Experimental: as §1
In vitro synergy of BRM with IFN-γ for TNF-α release is studied using the same peritoneal mouse macrophages derived from C57BL/6 mice treated as above. […] The same macrophages stimulated with either LPS or IFN-γ release almost 3000 pg/ml of TNF-α.

## IFN-γ: interferon gamma, conventional macrophage activator
[1]
  release of NO by macrophages, stimulus alone: enhanced NO production
[2]
  release of TNF-α: ~3000 pg/mL
